Test results taken from patent US20060135494A1, “Methods of treating injuries of the nervous system associated with hemorrhage” (priority 2002, published 2006).

Assays:
[1] = test system: Bcl-2, Bcl-xL, Bax; experiment: Bcl-2 family protein (immunoblot) and mRNA (RT-PCR) in ICH rat brain; type: in vivo; details: TUDCA 10-200 mg/kg bw, ipsilateral hemisphere
Source text: All animals received humane care in compliance with the institute's guidelines as outlined in “Guide for the Care and Use of Laboratory Animals” prepared by the National Academy of Sciences and published by the National Institutes of Health (NIH publication no. 86-23, revised 1985). Female Sprague-Dawley rats (250-300 grams (g); Harlan Sprague-Dawley, Inc., Indianapolis, Ind.) were anesthesized with an intramuscular injection of a mixture of ketamine and xylazine and set in supine in a Kopf headholder. The right carotid artery, external and internal branches, was exposed and the distal end of the external carotid freed and retracted to line with the internal carotid. A PE-10 polyethylene tube (Becton-Dickinson, Sparks, Md.) was then introduced from the external into the internal carotid artery, and the former was ligated to hold the tube. TUDCA (Calbiochem-Novabiochem Corp., San Diego, Calif.) was dissolved in phosphate buffer, pH 7.4 at […] milligrams per milliliter (mg/ml). Saline or TUDCA solution (1 milliliter per kilogram body weight (ml/kg bw)) were injected directly into the internal carotid artery, within 5 minutes. Different concentrations of TUDCA (10, 50, 100, and 200 mg/kg bw) were administered 1 hour prior to, or 1, 3, and 6 hours after collagenase injection. The polyethylene tube was finally removed, the end of the external carotid artery cauterized, and the wound closed. To induce stroke injury, the animals were placed in a stereotaxic apparatus and ICH induced by collagenase infusion (Rosenberg et al., Stroke 1990;21:801-807 and Chesney et al., Stroke 1995;26:312-316). In brief, a midline incision was made through the scalp to expose the skull. […] (0.5 microliters per minute (μL/min)) of saline containing 0.5 unit (U) bacterial collagenase (type VII; Sigma Chemical Co., St. Louis, Mo.) was made stereotaxically into the striatum with a 10-μl Hamilton syringe at the following coordinates: 0.4 millimeter (mm) anterior and 3.0 mm lateral to bregma and 5.0 mm ventral to the cortical surface. Once the infusion was complete, the Hamilton syringe was left in place for 3 minutes. Body temperature was maintained at 37° C. with a CMA/150 temperature controller throughout the surgery. The rats recovered from surgery in a cage containing food and heated by an incandescent light bulb. Neurological testing was performed at 2 days after induction of ICH. The animals were then sacrificed, and the brains removed and frozen at −70° C. for either serial cryostat sectioning, or RNA and protein extraction. In a subset of animals, serum and brain samples were collected for bile acid analysis.
Changes in Bcl-2 family expression were determined by RT-PCR. Total RNA was extracted from brain tissue using the TRIZOL reagent from Life Technologies, Inc. (Grand Island, N.Y.). For RT-PCR, 5 μg of total RNA was reverse-transcribed using oligo(dT) (IDT, Inc., Coralville, Iowa) and SUPERSCRIPT II reverse transcriptase (Life Technologies Inc.). Specific oligonucleotide primer pairs were incubated with cDNA template for PCR amplification using the Expand High Fidelity PCR System from Roche Diagnostics, GmbH. […] Amplified PCR products were analyzed by agarose gel electrophoresis and ethidium bromide staining. […]

[2] = test system: phosphorylated Akt-1 Ser473, phosphorylated Bad Ser-136; experiment: Immunoblotting of phosphorylated Akt-1 and phosphorylated Bad in ICH rat brain; type: in vivo
Source text: All animals received humane care in compliance with the institute's guidelines as outlined in “Guide for the Care and Use of Laboratory Animals” prepared by the National Academy of Sciences and published by the National Institutes of Health (NIH publication no. 86-23, revised 1985). Female Sprague-Dawley rats (250-300 grams (g); Harlan Sprague-Dawley, Inc., Indianapolis, Ind.) were anesthesized with an intramuscular injection of a mixture of ketamine and xylazine and set in supine in a Kopf headholder. The right carotid artery, external and internal branches, was exposed and the distal end of the external carotid freed and retracted to line with the internal carotid. A PE-10 polyethylene tube (Becton-Dickinson, Sparks, Md.) was then introduced from the external into the internal carotid artery, and the former was ligated to hold the tube. TUDCA (Calbiochem-Novabiochem Corp., San Diego, Calif.) was dissolved in phosphate buffer, pH 7.4 at 400 milligrams per milliliter (mg/ml). Saline or TUDCA solution (1 milliliter per kilogram body weight (ml/kg bw)) were injected directly into the internal carotid artery, within 5 minutes. […]
Bcl-2 family, NF-κB, IκB, p-Akt, and p-Bad protein levels were determined from total protein homogenates separated by 12% sodium dodecyl sulfate polyacrylamide gel electrophoresis (SDS-PAGE). […]

[3] = Bile acid analysis of serum and brain; type: in vivo, rat; details: single 100 mg/kg bw arterial dose
Source text: All animals received humane care in compliance with the institute's guidelines as outlined in “Guide for the Care and Use of Laboratory Animals” prepared by the National Academy of Sciences and published by the National Institutes of Health (NIH publication no. 86-23, revised 1985). Female Sprague-Dawley rats (250-300 grams (g); Harlan Sprague-Dawley, Inc., Indianapolis, Ind.) were anesthesized with an intramuscular injection of a mixture of ketamine and xylazine and set in supine in a Kopf headholder. The right carotid artery, external and internal branches, was exposed and the distal end of the external carotid freed and retracted to line with the internal carotid. A PE-10 polyethylene tube (Becton-Dickinson, Sparks, Md.) was then introduced from the external into the internal carotid artery, and the former was ligated to hold the tube. […]
Normal controls and rats with intrastriatal hematoma were sacrificed 1, 3, and 6 hours after TUDCA or vehicle injection. […] Bile acids were assessed by gas chromatography after organic solvent extraction, purification on Lipidex 1000, liquid-solid extraction, hydrolysis, isolation by lipophilic anion exchange chromatography and conversion to methyl ester-trimethylsilyl ether derivatives (Setchell et al., Gastroenterology 1997;112:226-235). Bile acid concentrations were expressed as nmol/g of tissue or as μmol/l of serum.

For `C[C@H](CCC(=O)NCCS(=O)(=O)O)[C@H]1CC[C@H]2[C@@H]3[C@@H](O)C[C@@H]4C[C@H](O)CC[C@]4(C)[C@H]3CC[C@]12C` [TUDCA, tauroursodeoxycholic acid], the “Bax protein” value [1] was “returned to contralateral hemisphere values”, the “Bcl-XL mRNA (RT-PCR, words)” value [1] was “decreased” and the “Bcl-xL protein levels” value [1] was “slightly diminished”. For the same molecule, the “transcriptional activation of Bcl-2 (mRNA, RT-PCR, words)” value [1] was “further increased”, the “Bcl-2 protein levels” value ([1]; dose-response study) was “remained elevated” and the “levels of phosphorylated Bad compared with untreated sham controls” value ([2]; brain of rats receiving TUDCA) was about 2 fold. The “expression of phosphorylated form of Akt-1” value ([2]; hemisphere ipsilateral to ICH, TUDCA 10-200 mg/kg bw) was “largely restored”, the concentration at 3 h ([3]; female, Sprague-Dawley, rat, serum, other: injected directly into the internal carotid artery, 3 hours following injection (from 0.3)) was 10.6 µM and the “increase in brain concentrations of the bile acid compared with vehicle-injected controls” value ([3]; 3 hours) was 10 fold.
